In patent publication US5391540A, “Substituted pyridine compounds” (Rohm and Haas Company, priority 1993, dated 1995):

Key:
Assay in all cases: Pre-emergent herbicidal activity (Table A)
Type in all cases: in vivo
Pennsylvania Smartweed = details: pre-emergence, Pesw, 11.2 kg/ha, 10-14 days, read-out: herbicidal rating (% inhibition)
Outline: (§1)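 Seeds or vegetative propagules were set on topsoil compacted to 0.95 to 1.27 cm below the pan rim, then covered with soil thoroughly mixed with a known amount of test compound in acetone or water carrier. Ratings follow a scale of percent inhibition per species.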

Common Lambsquarters = details: Chenopodium album, pre-emergence, Colq, 11.2 kg/ha, 10-14 days, read-out: herbicidal rating (% inhibition)
Outline: as §1

Rhizome Johnsongrass = details: Sorghum halepense, pre-emergence, Rhjg, 11.2 kg/ha, 10-14 days, read-out: herbicidal rating (% inhibition)
Outline: as §1

Cocklebur = details: Xanthium strumarium, pre-emergence, Cobu, 11.2 kg/ha, 10-14 days, read-out: herbicidal rating (% inhibition)
Outline: as §1

Yellow Nutsedge = details: Cyperus, pre-emergence, Yens, 11.2 kg/ha, 10-14 days, read-out: herbicidal rating (% inhibition)
Outline: as §1

Downy Brome = details: Bromus tectorum, pre-emergence, Dobr, 11.2 kg/ha, 10-14 days, read-out: herbicidal rating (% inhibition)
Outline: as §1

Velvetleaf = details: Abutilon theophrasti, pre-emergence, Vele, 11.2 kg/ha, 10-14 days, read-out: herbicidal rating (% inhibition)
Outline: as §1

Barnyardgrass = details: Echinochloa crus-galli, pre-emergence, Bygr, 11.2 kg/ha, 10-14 days, read-out: herbicidal rating (% inhibition)
Outline: as §1

Canada thistle = details: Cirsium arvense, pre-emergence, Cath, 11.2 kg/ha, 10-14 days, read-out: herbicidal rating (% inhibition)
Outline: as §1

Morningglory = details: Ipomoea, pre-emergence, Mogl, 11.2 kg/ha, 10-14 days, read-out: herbicidal rating (% inhibition)
Outline: as §1

Quackgrass = details: pre-emergence, Rhqg, 11.2 kg/ha, 10-14 days, read-out: herbicidal rating (% inhibition)
Outline: as §1

Compound | inhibition at 11200 g/ha (Pennsylvania Smartweed) [%] | inhibition at 11200 g/ha (Common Lambsquarters) [%] | inhibition at 11200 g/ha (Rhizome Johnsongrass) [%] | inhibition at 11200 g/ha (Cocklebur) [%] | inhibition at 11200 g/ha (Yellow Nutsedge) [%] | inhibition at 11200 g/ha (Downy Brome) [%] | inhibition at 11200 g/ha (Velvetleaf) [%] | inhibition at 11200 g/ha (Barnyardgrass) [%] | inhibition at 11200 g/ha (Canada thistle) [%] | inhibition at 11200 g/ha (Morningglory) [%] | inhibition at 11200 g/ha (Quackgrass) [%]
COC=Nc1c(OC)nc(C(F)(F)F)c(C(=O)OC)c1CC(C)C [Compound 56, 3-pyridinecarboxylic acid, 6-methoxy-5-[(methoxymethylene)amino]-4-(2-methylpropyl)-2-(trifluoromethyl)-, methyl ester] | 0 to 24 | 75 to 100 | 0 to 24 | 0 to 24 | 0 to 24 | 75 to 100 | 0 to 24 | 75 to 100 | 0 to 24 | 0 to 24 | 0 to 24
COC(=O)c1c(C(F)(F)F)nc(OC)c(N=CN(C)C)c1CC(C)C [Compound 57, 3-pyridinecarboxylic acid, 5[[(dimethylamino)methylene]amino]-6-methoxy-4-(2-methylpropyl)-2-(trifluoromethyl)-, methyl ester] | 0 to 24 | 75 to 100 | 75 to 100 | 0 to 24 | 0 to 24 | 75 to 100 | 50 to 74 | 75 to 100 | 0 to 24 | 50 to 74 | 75 to 100
COC(=O)c1c(C(F)(F)F)nc(OC)c(N=CSC)c1CC(C)C [Compound 58, 3-pyridinecarboxylic acid, 6-methoxy-4-(2-methylpropyl)-5-[(methylthiomethylene)]amino-2-(trifluoromethyl)-, methyl ester] | 75 to 100 | 75 to 100 | 0 to 24 | 0 to 24 | 0 to 24 | 75 to 100 | 25 to 49 | 75 to 100 | 0 to 24 | 25 to 49 | 75 to 100
COc1nc(C(F)(F)F)c(C(=O)n2cccn2)c(C2CCC2)c1C(=O)n1cccn1 [Compound 59, 4-cyclobuty1-2-methoxy-3,5-bis(1H-pyrazo1-1-ylcarbonyl)-6-(trifluoromethyl)-pyridine] | 75 to 100 | 75 to 100 | 0 to 24 | 0 to 24 | 0 to 24 | 75 to 100 | 50 to 74 | 75 to 100 | 0 to 24 | 75 to 100 | 75 to 100
COC(=O)c1c(OC)nc(C(F)(F)F)c(C(=O)n2cncn2)c1CC(C)C [Compound 60, 3-pyridinecarboxylic acid, 2-methoxy-4-(2-methylpropyl)-5-(1H-1,2,4-triazo1-1-ylcarbonyl)-6-(trifluoromethyl)-, methyl ester] | 75 to 100 | 75 to 100 | 75 to 100 | 25 to 49 | 0 to 24 | 75 to 100 | 75 to 100 | 75 to 100 | 75 to 100 | 75 to 100 | 75 to 100
CCOC=Nc1c(C(F)(F)F)nc(OC)c(C(=O)OC)c1CC(C)C [Compound 61, 3-pyridinecarboxylic acid, 5-[(ethoxymethylene)amino]-2-methoxy-4-(2-methylpropyl)-6-(trifluoromethyl)-, methyl ester] | 75 to 100 | 75 to 100 | 75 to 100 | 25 to 49 | 0 to 24 | 75 to 100 | 75 to 100 | 75 to 100 | 50 to 74 | 75 to 100 | 75 to 100
COC(=O)c1c(OC)nc(C(F)(F)F)c(N=CN(C)C)c1CC(C)C [Compound 62, 3-pyridinecarboxylic acid, 5-[[(dimethylamino)methylene]amino]-2-methoxy-4-(2-methylpropyl)-6-(trifluoromethyl)-, methyl ester] | 75 to 100 | 75 to 100 | 50 to 74 | 25 to 49 | 25 to 49 | 75 to 100 | 75 to 100 | 75 to 100 | 75 to 100 | 75 to 100 | 75 to 100
